# Source: PubChem BioAssay (NCI)
#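 In this assay, cells in 96-well plates receive the compound at five concentrations for 48 hours. Endpoints are linearly interpolated between the surrounding concentrations. GI50 marks 50% less growth. TGI: concentration producing complete growth inhibition.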
# Key:
# Assay in all cases: DTP human tumour cell line panel, 48 h
# [1] = tested on: LXFL 529 NSCLC
# [2] = tested on: SF-539 CNS
# [3] = tested on: SNB-19 CNS
# [4] = tested on: HCC-2998 colon
# [5] = tested on: MCF7 breast
# [6] = tested on: COLO 205 colon
# [7] = tested on: M19-MEL melanoma
# [8] = tested on: OVCAR-8 ovarian
# [9] = tested on: NCI-H460 lung
# [10] = tested on: U251 CNS
Compound,TGI [1] [µM],TGI [2] [µM],TGI [3] [µM],TGI [4] [µM],TGI [5] [µM],TGI [6] [µM],TGI [7] [µM],TGI [8] [µM],TGI [9] [µM],TGI [10] [µM],GI50 [1] [µM],GI50 [2] [µM],GI50 [3] [µM],GI50 [4] [µM],GI50 [6] [µM],GI50 [7] [µM],GI50 [8] [µM],GI50 [9] [µM],GI50 [10] [µM]
CCc1nc2ccc(NCCN(C)C)c3c(=O)c4ccccc4n1c23,13.9,15,16.5,5.8,21.1,3.44,10.4,4.76,3.07,12.1,–,–,–,–,–,–,–,–,–
CCOC(=O)N(c1ccccc1)N(CC)C(=O)/C(C)=N/Nc1ccc([N+](=O)[O-])cc1,34.6,30,34.9,32.5,–,33.5,31.2,32.6,–,28.2,–,–,–,–,–,–,–,–,–
CC(=O)NC(CC(C)C)C(=O)NC(Cc1ccccc1)C(=S)N1CCCC1 (stereo unspecified),> 100,–,> 100,> 100,–,> 100,> 100,> 100,> 100,> 100,–,–,–,–,–,–,–,–,–
O=C1Nc2ccccc2Nc2ccncc21,–,> 100,> 100,> 100,> 100,> 100,> 100,> 100,> 100,> 100,–,–,–,–,–,–,–,–,–
Cc1cc(=O)[nH]c(NN2C(Cl)C(=O)C2c2cccc(Cl)c2)n1 (stereo unspecified),–,39.4,92.6,98.9,–,–,> 100,> 100,43.2,> 100,–,–,–,–,–,–,–,–,–
O=c1[nH]cnc2c1nnn2CCCCCCCCCCCCn1nnc2c(=O)[nH]cnc21,> 100,54.6,54.9,> 100,> 100,> 100,> 100,> 86.8,> 100,52.8,–,–,–,–,–,–,–,–,–
COc1cccc(-c2cc(=O)c3ccccc3[nH]2)c1,> 100,18.7,> 100,18.1,–,> 38.2,> 100,> 72.7,> 100,> 100,–,–,–,–,–,–,–,–,–
CN1c2ccccc2N(C(=O)c2ccccc2)C(CC(=O)O)c2cccn21 (stereo unspecified),> 100,> 100,> 100,> 100,–,> 100,> 100,> 100,> 100,> 100,–,–,–,–,–,–,–,–,–
CC(=O)[CH-]C(=O)c1ccccc1.CC(=O)[CH-]C(=O)c1ccccc1.C[C@]12CCC(=O)C=C1CC[C@@H]1C2CC[C@@]2(C)C1CC[C@]2(C)[O-].C[C@]12CCC(=O)C=C1CC[C@@H]1C2CC[C@@]2(C)C1CC[C@]2(C)[O-].Cl.[Ti+4] (stereo partly specified),76.4,29.3,29.3,41.7,–,> 100,> 100,77.5,49.9,54.2,20.7,13.9,14,17.3,37.6,26.5,20.4,16.4,15.2
CC1(C)C(=O)C(C)(C)C1=S,> 100,–,> 100,> 100,–,> 100,> 100,> 100,> 100,> 100,–,–,–,–,–,–,–,–,–
